According to patent US10138212B2, “Aminoquinazoline compounds as A2A antagonist” (Merck Sharp & Dohme Corp., priority 2015, dated 2018):

Columns and labels:
human A1 receptor = human A1 receptor (Homo sapiens (Human), UniProt P30542); assay: A1 competition binding assay using Scintillation Proximity technology; selectivity = A1 binding Ki / A2a binding Ki; conditions: A1 binding Ki divided by A2a binding Ki
How it was run: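 SPA competition using 5 ug membranes from CHO-K1 cells expressing human A1, pretreated with adenosine deaminase. Radioligand was 0.7 nM [3H]DPCPX (final), with compound at 3000–0.15 nM in DPBS + 10 mM MgCl2. Incubation was 1 h at room temperature. Non-specific binding was defined with 1 uM DPCPX, and Ki was derived as for A2a.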

human A2a receptor = human A2a receptor (Homo sapiens (Human), UniProt P29274); assay: A2a competition binding assay using Scintillation Proximity technology
Sequence of human A2a receptor (P29274 whole entry): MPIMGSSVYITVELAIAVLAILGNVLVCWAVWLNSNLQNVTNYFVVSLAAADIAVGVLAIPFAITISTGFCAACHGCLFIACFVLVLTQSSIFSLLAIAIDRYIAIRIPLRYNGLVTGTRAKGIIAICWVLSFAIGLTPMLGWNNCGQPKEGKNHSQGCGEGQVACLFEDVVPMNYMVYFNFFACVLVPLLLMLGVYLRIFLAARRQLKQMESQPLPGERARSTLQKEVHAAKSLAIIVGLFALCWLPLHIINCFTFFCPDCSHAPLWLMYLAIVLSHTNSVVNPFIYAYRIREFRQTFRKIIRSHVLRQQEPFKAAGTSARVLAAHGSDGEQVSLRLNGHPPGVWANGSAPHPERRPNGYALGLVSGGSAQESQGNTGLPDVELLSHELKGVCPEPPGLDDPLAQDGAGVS
How it was run: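 Membranes (0.25 or 1 μg) from HEK293 expressing the receptor were pretreated with adenosine deaminase and bound to WGA-coated yttrium silicate SPA beads. They were incubated 1 h at room temperature with compound at 3000–0.15 nM and 0.5 nM tritiated pyrazolotriazolopyrimidine ligand in Ca/Mg-free DPBS with 10 mM MgCl2. Ki was derived from […] by Cheng-Prusoff.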

[1] = 0.25 μg of membranes from HEK293 cells expressing the human A2a receptor
[2] = * assay run with 1 μg of membranes versus 0.25 μg, HEK293 cells expressing the human A2a receptor

Sequence of human A1 receptor (P30542 whole entry): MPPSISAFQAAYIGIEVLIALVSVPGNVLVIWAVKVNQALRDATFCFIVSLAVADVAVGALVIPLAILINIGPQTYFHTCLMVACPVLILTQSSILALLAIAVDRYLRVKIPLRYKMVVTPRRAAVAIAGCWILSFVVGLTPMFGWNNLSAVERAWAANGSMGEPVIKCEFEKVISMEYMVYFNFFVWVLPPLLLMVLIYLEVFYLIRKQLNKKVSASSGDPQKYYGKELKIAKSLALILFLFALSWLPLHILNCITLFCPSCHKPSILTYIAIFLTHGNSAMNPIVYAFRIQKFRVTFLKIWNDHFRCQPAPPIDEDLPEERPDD

Structure (SMILES)	A2a selectivity (A2a A1 binding selectivity) (human A1 receptor)	Ki (human A2a receptor; [1]) [nM]	Ki (human A2a receptor; [2]) [nM]
COc1cccc2c(C(=O)NCc3cccc(C(F)(F)F)n3)nc(N)nc12 [Example 18, 2-amino-8-methoxy-N-[[6-(trifluoromethyl)-2-pyridyl]methyl]quinazoline-4-carboxamide]	412	0.4	
COc1cccc2c(C(=O)NCc3ncccc3F)nc(N)nc12 [Example 25, 2-amino-N-[(3-fluoro-2-pyridyl)methyl]-8-methoxy-quinazoline-4-carboxamide]	221	1.4	
COc1ccc(CNC(=O)c2nc(N)nc3c(OC)cccc23)nc1 [Example 22, 2-amino-8-methoxy-N-[(5-methoxy-2-pyridyl)methyl]quinazoline-4-carboxamide]	52	7.8	
[2H]C([2H])(NC(=O)c1nc(N)nc2c(F)cccc12)c1cccc(Oc2ccc(OCCOC)cc2)n1 [Example 59, 2-amino-N-[dideuterio-[6-[4-(2-methoxyethoxy)phenoxy]-2-pyridyl]methyl]-8-fluoro-quinazoline-4-carboxamide]	32		3.7
Nc1nc(C(=O)NCc2cccc3cccnc23)c2cccc(OC(F)(F)F)c2n1 [Example 101, 2-amino-N-(8-quinolylmethyl)-8-(trifluoromethoxy)quinazoline-4-carboxamide]	88	0.2	
Nc1nc(C(=O)NCc2cccc3c2OCCN3)c2cccc(F)c2n1 [Example 84, 2-amino-N-(3,4-dihydro-2H-1,4-benzoxazin-8-ylmethyl)-8-fluoro-quinazoline-4-carboxamide]	25	5.3	

The remaining lines, values ahead:

A2a selectivity (A2a A1 binding selectivity) (human A1 receptor)	Ki (human A2a receptor; [1]) [nM]	Ki (human A2a receptor; [2]) [nM]	Structure (SMILES)
163	2.1		N#Cc1cccc2c(C(=O)NCc3cccc4cccnc34)nc(N)nc12 [Example 100, 2-amino-8-cyano-N-(8-quinolylmethyl)quinazoline-4-carboxamide]
3	929		COc1cccc2c(C(=O)NC3(c4ccccn4)CC3)nc(N)nc12 [Example 40, 2-amino-8-methoxy-N-[1-(2-pyridyl)cyclopropyl]quinazoline-4-carboxamide]
36		3.2	COc1cccc2c(C(=O)NCc3cccc(CSc4ccc(F)cc4)n3)nc(N)nc12 [Example 55, 2-amino-N-[[6-[(4-fluorophenyl)sulfanyl-methyl]-2-pyridyl]methyl]-8-methoxy-quinazoline-4-carboxamide]
4		3.3	COc1cccc2c(C(=O)NCc3cccc(-c4cccc(O)c4)n3)nc(N)nc12 [Example 8, 2-amino-N-[[6-(3-hydroxyphenyl)-2-pyridyl]methyl]-8-methoxy-quinazoline-4-carboxamide]
3		32	Nc1nc(C(=O)NCC2CC3CCC2C3)c2cccc(F)c2n1 (stereo not shown) [Example 87, 2-amino-8-fluoro-N-(norbornan-2-ylmethyl)quinazoline-4-carboxamide]
75	1		CC(C)Oc1cccc(CNC(=O)c2nc(N)nc3c(F)cccc23)n1 [Example 78, 2-amino-8-fluoro-N-[(6-isoppropoxy-2-pyridyl)methyl]quinazoline-4-carboxamide]
95	2		[2H]C([2H])(NC(=O)c1nc(N)nc2c(OC)cccc12)c1cccc(C([2H])([2H])c2cncc(OCCOC)c2)n1 [Example 107, 2-amino-N-[dideuterio-[6-[dideuterio-[5-(2-methoxyethoxy)-3-pyridyl]methyl]-2-pyridyl]methyl]-8-methoxy-quinazoline-4-carboxamide]
4	6.4		Nc1nc(C(=O)NCC23CC4CC(CC(C4)C2)C3)c2cccc(F)c2n1 [Example 85, N-(1-adamantylmethyl)-2-amino-8-fluoro-quinazoline-4-carboxamide]
